{"source": "patent US20250345275A1", "about": "“Micromolar Halogenated Fluorescein Assists in Full Skin-Thickness Wound Healing” (priority 2024, published 2025)", "key": {"[1]": {"tested_on": "full-thickness cutaneous wounds", "test": "Tissue ROS generation in full-thickness injury", "type": "in vivo, Balb/c mice", "settings": "RB phototherapy", "description": "Following functional and planimetric measurements, animals were euthanized and the dorsal skin, inclusive down to underlying facia and dorsal musculature, was excised; care was employed to not disrupt any open wound post-mortem and maintain tissue integrity. The left-side wound and surrounding uninjured skin was directly transferred into a flat position histology cassette and the right-side wound was immediately snap-frozen in liquid nitrogen for reactive oxygen species and molecular analyses. Histology cassettes were then immersed in 10% neutral buffer formalin for 72 hours and subsequently placed in 70% ethanol thereafter. Uninjured skin tissue for each animal was also collected and preserved for future analyses.\nData are presented as mean±SD with n=3-6 animals per group"}, "[2]": {"tested_on": "full-thickness cutaneous wounds", "test": "Wound erythema index, DermaLab Combo", "type": "in vivo, BALB/c mice", "procedure": "(§1) Animals were placed under general anesthesia and a 10-mm diameter TEWL probe was placed directly over each wound ensuring uniform coverage and forming a seal immediately around the wound. Following environmental normalization to ambient temperature and relative humidity, TWEL was calculated at […]. A minimum of three TWEL measurements were obtained for each full-thickness wound and uninjured skin area. A color sensitive 7-mm diameter probe, insensitive to ambient light, was then placed over each wound to measure erythema; four measures were obtained for each wound. All wound erythema calculations were normalized to uninjured skin and reported as an index value over time.\nas §1, with “At each time point prior to euthanasia, transepidermal water loss (TEWL) and wound erythema indices were measured using the validated DermaLab combo system (CortexTechnologies, Hadsund, Denmark). Animals” for “Animals”, “TEWL” for “TWEL”"}, "[3]": {"settings": "PV-10 as RB source, delivered intratumorally; cited from earlier work"}, "[4]": {"test": "Tolerated bolus dose on intravasation after intratumoral PV-10", "type": "in vivo", "settings": "equivalent of the 1500 mg bolus", "procedure": "The wounds were treated with an aqueous pharmaceutical composition prepared using a PV-10®-based rose bengal formulation. PV-10® is a sterile, non-pyrogenic 10% solution of disodium RB in 0.9% saline for injection. Using PV-10®, as its RB source, RB has been tolerated at a bolus dose of 1500 mg upon intravasation when delivered intratumorally; this equates to an exposure of approximately 300 mg/L in the bloodstream (300 μM RB)."}, "[5]": {"settings": "non-medical grade rose bengal, photoactivation with 550 nm MGL; cited from earlier work"}, "[6]": {"test": "Complete blood count and blood chemistry panel", "type": "in vivo, BALB/c mice", "description": "(§2) Primary outcomes assessed safety through analysis of full complete blood count (CBC), comprehensive blood chemistry, body and organ weight. Secondary outcomes analyzed wound closure, epidermal water loss, erythema, and comprehensive wound histology.\n(§3) In the primary outcome and measures and observations, the treated animals and a control group received a full CBC and comprehensive blood chemistry panel, as well as observations of body weight food consumption, and organ appearance. Secondarily, wound closure, epidermal water loss erythema and wound histology were examined.\n(§4) to determine the effects of rose bengal on blood parameters, blood samples were collected at euthanasia through cardiac puncture and were analyzed for complete blood count using an Abaxis VETSCAN® HM5 Hematology Analyzer Allied Analytic, LLC., Tampa, FL. The blood components analyzed included: white blood cells [WBC], lymphocytes [LYMPH], monocytes [MONO], neutrophils [NEUT], red blood cells [RBC], hemoglobin [HGB], hematocrit [HCT], mean corpuscle volume [MCV], mean corpuscle hemoglobin [MCH], mean corpuscle hemoglobin concentration [MCHC], platelets [PLT], and mean platelet volume [MPV]. Blood chemistry was also analyzed using an Abaxis VETSCAN® VS2 Chemistry Analyzer—Diagnostics to determine liver and Pancreas function through Albumin [ALB], Alkaline phosphatase [ALP], Alanine aminotransferase [ALT], Total bilirubin [tBIL], Total protein [TPRT], Globulin [GLOB], and Amylase [AMY]. Glucose & electrolyte levels were determined by measuring Glucose [GLU], Calcium [CA], Phosphorus [PHOS], Sodium [NA], and Potassium [K]. Kidney Function was assessed through Creatinine [CRE] and Blood urea nitrogen [BUN] levels."}, "[7]": {"tested_on": "full-thickness cutaneous wounds", "test": "Transepidermal water loss (TEWL) over the wound, DermaLab Combo", "type": "in vivo, BALB/c mice", "settings": "0.01% RBS, no irradiation; for TEWL relative to usual (pre-injury) range: day 14 post-injury (FIG. 2B); for TEWL compared with vehicle alone: day 14 post-injury, p<0.0001 (FIG. 2B)", "procedure": "as §1\nas §1, with “At each time point prior to euthanasia, transepidermal water loss (TEWL) and wound erythema indices were measured using the validated DermaLab combo system (CortexTechnologies, Hadsund, Denmark). Animals” for “Animals”, “TEWL” for “TWEL”"}, "[8]": {"tested_on": "full-thickness cutaneous wounds", "test": "Wound closure by planimetry of digital images", "type": "in vivo, BALB/c mice", "settings": "for wound closure compared with vehicle alone: 0.01% RB, no irradiation, day 3 post-injury (FIG. 4)", "procedure": "(§5) A Balb/C mice excision model was used with a cutaneous full-thickness injury made by a 6-mm diameter punch biopsy. The mice were 7-weeks old and 52 animals were used in the studies discussed herein.\n(§6) Animals were administered the RB-containing PF-127-containing hydrogel every other day. A total of three animal treatment groups were studied along with two control groups. one group received vehicle plus light treatment, whereas the other group received vehicle without light. One treatment group of mice received 0.1% RB-containing hydrogel with irradiation for 30 minutes using monochromatic green light (MGL), λ=532 nm at a distance of 2.5 cm that provided […] and a dose of 35J/cm^2. A second treatment group also received 0.1% RB-containing hydrogel, but without MGL irradiation. The third treatment group received 0.01% RB-containing hydrogel without MGL irradiation.\nBefore surgery, animals received buprenorphine (0.1 mg kg^−1) for pre-procedural analgesia, and inhaled isoflurane (0.2-1.0%) was continuously administered throughout the procedure. The dorsum of the animal was shaved, a depilatory cream was applied to completely remove all dorsal hair, and the area was scrubbed with betadine antiseptic. The animal was laid in the right lateral decubitus position and using forceps, the dorsal skin was stretched, and a 6-mm punch biopsy was used to create bilateral full-thickness cutaneous wounds. Next, a 0.5 mm-thick silicone ring was sutured in place through the panniculus carnosus around each wound to ensure wounds healed primarily through re-epithelialization.\nAnimals were then randomized into treatment groups as follows: (1) Saline control in the dark, (2) Saline control with MGL irradiation, (3) Hydrogel vehicle in the dark, (4) Hydrogel vehicle with MGL irradiation, (5) RB in the dark, and (6) RB with MGL irradiation. Treatment was applied directly to the wound bed (800 uL per wound) and spread using a sterile surgical spatula to ensure even and uniform thickness over the wound.\nAnimals were then placed in a separate light-sealed and heated enclosure in a sternal position to expose dorsal wounds and remained under general isoflurane anesthesia. All other exposed portions of the body were then covered with sterile wrap to expose only the wounds. […] Animals were euthanized at 3-, 7-, and 14-days post-injury when wound healing parameters were assessed.\nAfter initial surgery and at each study time point post-injury, color digital images were obtained for each wound. […] Wound planimetry was calculated using ImageJ software (ver. 1.53) by tracing wound edges yielding a surface area in […]. Wound closure was calculated as follows: […]"}, "[9]": {"test": "Body weight, survival, adverse events and organ examination in mice with full-thickness wounds", "type": "in vivo, BALB/c mice", "settings": "for loss of body weight: 3 and 7 days post-injury (FIG. 1A)", "procedure": "Animals: The Institutional Animal Care and Use Committee of the University of Texas Medical Branch in Galveston (UTMB) approved all protocols and studies were conducted in accordance with animal welfare regulations. Healthy 7-week-old male BALB/c mice (N=58) (strain 028, Charles River Laboratories, Houston, Texas, USA) 18-22 g were socially housed in temperature-and light-controlled facilities at UTMB with free access to food and water. Animals were acclimatized for one week before surgical procedures.\nas §5, §6, §2, §3, §4"}, "[10]": {"tested_on": "full-thickness cutaneous wounds", "test": "Number of blood vessels in the wound area (smooth muscle actin staining)", "type": "in vivo, BALB/c mice", "settings": "0.01% RBS in vehicle, p<0.05 (FIG. 6); group not clearly stated"}, "[11]": {"settings": "0.01% RBS, no irradiation, day 7 post-injury, p<0.0001 (FIG. 3B)"}, "[12]": {"settings": "0.01% RB every other day without photoactivation"}, "[13]": {"settings": "0.1% RB every other day with or without photoactivation"}, "[14]": {"settings": "0.1% RB every other day with or without photoactivation, out to 7 days"}, "[15]": {"settings": "0.01% RBS, no irradiation, day 14 post-injury"}}, "note": "Several values for one entry are separate records, joined by “and”; a condition that tells them apart may be missing. Identical values can stand only once. Entries after “also recorded” stand apart in the source; their conditions may differ."}
{"smiles": "O=C1OC2(c3cc(I)c(O)c(I)c3Oc3c2cc(I)c(O)c3I)c2c(Cl)c(Cl)c(Cl)c(Cl)c21", "note": "[RB, 4,5,6,7-tetrachloro-2′, 4′, 5′, 7′-tetraiodo-fluorescein]", "values": [{"measurement": "tissue ROS", "setting": "[1]; 3 days post-injury, versus all other treatments", "result": "significantly increased tissue ROS"}, {"measurement": "tissue ROS", "setting": "[1]; day 14", "result": "abates to nominal levels"}, {"measurement": "tissue ROS", "setting": "[1]; throughout 7 days, versus all other treatments", "result": "sustained"}, {"measurement": "erythema index compared with vehicle alone", "setting": "[2]; [11]", "result": "significantly increased"}, {"measurement": "erythema, day 3 versus day 7", "setting": "[2]; 0.1% RB, days 3 and 7 post injury (FIG. 3A)", "result": "about the same"}, {"measurement": "tolerated bolus dose upon intravasation", "setting": "[3]", "result": 1500, "unit": "mg"}, {"measurement": "exposure in the bloodstream", "setting": "[4]", "result": "approximately 300 mg/L and 300 μM"}, {"measurement": "wound closure", "setting": "[5]", "result": "accelerates wound closure"}, {"measurement": "wound healing", "setting": "[5]", "result": "improves wound healing"}, {"measurement": "other chemistries", "setting": "[6]; [12]", "result": "within normal ranges"}, {"measurement": "Erythrocytes and platelets size, morphology, count", "setting": "[6]; 0.01% RB every other day without photoactivation, out to 14 days", "result": "normal"}, {"measurement": "Leukocyte count", "setting": "[6]; 0.01% RB every other day without photoactivation, out to 14 days post-injury/treatment", "result": "normal"}, {"measurement": "mean amylase", "setting": "[6]; 0.01% RB every other day without photoactivation, all groups", "result": "Elevated"}, {"measurement": "other chemistries", "setting": "[6]; [13]", "result": "within normal ranges"}, {"measurement": "Erythrocytes and platelets size, morphology, count", "setting": "[6]; [14]", "result": "normal"}, {"measurement": "Leukocyte count", "setting": "[6]; 0.1% RB every other day with or without photoactivation, out to 7 days post-injury", "result": "normal"}, {"measurement": "mean amylase", "setting": "[6]; 0.1% RB every other day with or without photoactivation, all treated groups", "result": "Elevated"}, {"measurement": "TEWL relative to usual (pre-injury) range", "setting": "[7]", "result": "about at the normal level"}, {"measurement": "TEWL compared with vehicle alone", "setting": "[7]", "result": "significantly reduced"}, {"measurement": "wound closure compared with vehicle alone", "setting": "[8]", "result": "accelerates wound closure"}, {"measurement": "wound closure compared with saline- or vehicle-treated wounds", "setting": "[8]; RB with or without MGL irradiation, 3 and 7 days after injury", "result": "significantly closes full-thickness wounds faster"}, {"measurement": "wound closure compared with every other treatment group", "setting": "[8]; photoactivated RB, 14 days post-injury, p<0.05", "result": "significantly increased wound closure"}, {"measurement": "adverse events", "setting": "[9]; [12]", "result": "no adverse events noted"}, {"measurement": "survival through time course", "setting": "[9]; 0.01% RB every other day without photoactivation, n=33", "result": "All animals survived"}, {"measurement": "Mean body mass", "setting": "[9]; 0.01% RB every other day without photoactivation, throughout treatment", "result": "maintained"}, {"measurement": "body weight", "setting": "[9]; 0.01% RB, no irradiation, day 14 post-injury (between day 7 and 14)", "result": "slight weight gains; also recorded: gained weight; also recorded: slight increase"}, {"measurement": "adverse events", "setting": "[9]; [13]", "result": "no adverse events noted"}, {"measurement": "survival through time course", "setting": "[9]; 0.1% RB every other day with or without photoactivation, n=19", "result": "All animals survived"}, {"measurement": "mean body mass loss", "setting": "[9]; [14]", "result": "~5", "unit": "%"}, {"measurement": "body weight", "setting": "[9]; 0.1% RB with and without irradiation, first seven days post-injury", "result": "lost weight"}, {"measurement": "Body weight and gross examination of internal organs", "setting": "[9]; at euthanasia", "result": "did not show any signs of toxicity"}, {"measurement": "loss in body or organ weight", "setting": "[9]; either treatment regimen (single or multidose)", "result": "No loss"}, {"measurement": "toxicity / safety for wound healing applications", "setting": "[9]; single (photoactivated) and multidose (ambient light, covered) topical application to full-thickness wounds", "result": "did not illicit toxicity"}, {"measurement": "body weight", "setting": "[9]; vehicle containing 0.01% RB, no irradiation, days 3 and 7 post-injury (FIG. 1B)", "result": "constant weights; also recorded: maintained their weights"}]}
{"smiles": "O=C([O-])c1c(Cl)c(Cl)c(Cl)c(Cl)c1-c1c2cc(I)c(=O)c(I)c-2oc2c(I)c([O-])c(I)cc12.[Na+].[Na+]", "note": "[RBS, rose bengal disodium]", "values": [{"measurement": "erythema index compared with vehicle alone", "setting": "[2]; [11]", "result": "statistically significant difference"}, {"measurement": "erythema index compared with vehicle alone", "setting": "[2]; [15]", "result": "not statistically different"}, {"measurement": "erythema index relative to usual values", "setting": "[2]; [15]", "result": "very similar to the usual erythema index values"}, {"measurement": "TEWL relative to usual (pre-injury) range", "setting": "[7]", "result": "back at their usual range"}, {"measurement": "TEWL compared with vehicle alone", "setting": "[7]", "result": "statistically significant difference"}, {"measurement": "wound closure compared with vehicle alone", "setting": "[8]", "result": "statistically significantly less"}, {"measurement": "loss of body weight", "setting": "[9]; 0.1% RBS with irradiation (MGL)", "result": "approximately 5%"}, {"measurement": "loss of body weight", "setting": "[9]; 0.1% RBS without irradiation", "result": "approximately 5%"}, {"measurement": "number of blood vessels, day 7 versus day 3 post-injury", "setting": "[10]", "result": "statistically greater"}]}
